What was measured:
Format in all cases: biochemical
[1] = molecular target: PKC alpha kinase (Homo sapiens, UniProt P17252); assay: PKC alpha kinase inhibition, coupled-enzyme NADH absorbance assay (Ki); conditions: 130 μM ATP, 4.5 nM PKC alpha, 30° C.; read-out: Ki PKC alpha
[2] = molecular target: PKC theta kinase (Homo sapiens, UniProt Q04759); assay: PKC theta kinase inhibition, coupled-enzyme NADH absorbance assay (Ki); conditions: 240 μM ATP, 18 nM PKC theta, 30° C.; read-out: Ki PKC theta
PKC theta kinase, sequence (Q04759 whole entry): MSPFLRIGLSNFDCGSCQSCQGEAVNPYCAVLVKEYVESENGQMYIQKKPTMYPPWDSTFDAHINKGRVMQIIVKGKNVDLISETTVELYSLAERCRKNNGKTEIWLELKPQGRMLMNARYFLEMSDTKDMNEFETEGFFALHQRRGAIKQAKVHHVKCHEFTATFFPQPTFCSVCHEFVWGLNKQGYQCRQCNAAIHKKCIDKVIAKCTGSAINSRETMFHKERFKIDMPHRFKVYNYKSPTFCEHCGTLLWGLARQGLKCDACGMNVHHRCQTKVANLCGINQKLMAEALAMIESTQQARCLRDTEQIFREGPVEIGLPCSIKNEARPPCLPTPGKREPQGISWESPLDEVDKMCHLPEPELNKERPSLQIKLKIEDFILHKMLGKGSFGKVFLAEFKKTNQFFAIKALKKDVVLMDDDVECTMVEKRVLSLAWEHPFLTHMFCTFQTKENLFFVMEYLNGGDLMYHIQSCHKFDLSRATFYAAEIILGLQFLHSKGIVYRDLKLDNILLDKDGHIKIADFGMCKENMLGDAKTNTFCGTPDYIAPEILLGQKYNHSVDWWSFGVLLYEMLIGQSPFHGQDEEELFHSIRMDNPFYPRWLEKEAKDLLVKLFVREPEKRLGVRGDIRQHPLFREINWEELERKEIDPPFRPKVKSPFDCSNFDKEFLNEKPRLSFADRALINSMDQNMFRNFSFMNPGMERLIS
Summary of the method: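 Enzyme and compound equilibrated 10 min at 30 °C before reaction in HEPES pH 7.5 buffer with MgCl2, NaCl, EDTA and Brij. Activity tracked as NADH loss at 340 nm through a coupled system. Initial-rate data fitted by non-linear regression to give Ki.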

[3] = molecular target: PKC delta kinase (Homo sapiens, UniProt Q05655); assay: PKC delta kinase inhibition, coupled-enzyme NADH absorbance assay (Ki); conditions: 150 μM ATP, 46 nM PKC delta, 30° C.; read-out: Ki PKC delta
PKC delta kinase, sequence (Q05655 whole entry): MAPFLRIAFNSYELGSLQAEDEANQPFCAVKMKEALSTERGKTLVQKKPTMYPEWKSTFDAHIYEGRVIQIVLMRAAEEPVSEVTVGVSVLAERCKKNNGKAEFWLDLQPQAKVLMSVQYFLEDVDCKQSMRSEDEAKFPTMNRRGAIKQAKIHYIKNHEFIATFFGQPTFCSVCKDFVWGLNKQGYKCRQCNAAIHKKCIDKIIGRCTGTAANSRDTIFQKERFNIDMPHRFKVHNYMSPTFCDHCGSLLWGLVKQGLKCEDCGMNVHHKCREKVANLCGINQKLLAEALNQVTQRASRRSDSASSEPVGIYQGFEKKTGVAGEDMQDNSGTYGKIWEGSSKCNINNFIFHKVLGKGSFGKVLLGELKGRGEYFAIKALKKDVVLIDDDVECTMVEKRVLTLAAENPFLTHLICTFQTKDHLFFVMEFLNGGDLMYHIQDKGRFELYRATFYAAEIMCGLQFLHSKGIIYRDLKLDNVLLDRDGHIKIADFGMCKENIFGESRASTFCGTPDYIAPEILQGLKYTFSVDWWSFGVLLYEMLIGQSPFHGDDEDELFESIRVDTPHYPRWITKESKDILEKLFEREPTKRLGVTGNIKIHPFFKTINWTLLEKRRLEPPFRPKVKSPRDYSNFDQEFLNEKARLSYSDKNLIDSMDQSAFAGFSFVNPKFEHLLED
Summary of the method: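 Assay buffer was 100 mM HEPES pH 7.5, 10 mM MgCl2, 25 mM NaCl, 0.1 mM EDTA, 0.01% Brij. Enzyme buffer was equilibrated with compound in DMSO for 10 min at 30 °C. Ki values were derived by non-linear regression of initial rate data.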

Row | Ki [1] [nM] | Ki [2] [nM] | Ki [3] [nM] | Structure (SMILES)
1 | < 2800 | < 500 | < 2800 | C=Cc1cc(-c2ccnc3[nH]ncc23)cc(C(C)(C)C#N)c1 [Compound 55]
2 | < 500 | < 50 | > 1200 | Cc1cc(-c2ccnc3[nH]nc(C(F)(F)F)c23)cc(C(C)(C)C#N)c1 [Compound 324]
3 | < 500 | < 50 | < 500 | Cc1cc(-c2ccnc3[nH]nc(C(F)(F)F)c23)cc(C2(CN)CCOCC2)c1 [Compound 275]
4 | > 1200 | < 500 | > 1200 | C=CCC1(c2cc(C)cc(-c3ccnc4[nH]ncc34)c2)CN(C)C(=O)O1 (stereo not drawn) [Compound 326]
5 | < 2800 | < 50 | < 2800 | CC(F)c1cc(-c2ccnc3[nH]ncc23)cc(C(C)(C)CN)c1 (stereo not drawn) [Compound 136]
6 | < 500 | < 50 | < 500 | CCc1cc(-c2ccnc3[nH]nc(C(F)(F)F)c23)cc(C(C)(CC)CN)c1 (stereo not drawn) [Compound 271]
7 | > 1200 | < 50 | > 1200 | CC(C)(O)CCc1cc(-c2ccnc3[nH]nc(C(F)(F)F)c23)cc(C2(C#N)CC2)c1 [Compound 316]
